Laboratory results taken from publication PMC7663003 (2020).

How the values were obtained:
Test in all cases: fluorescence titration
[1] = test system: 22Kit (DNA, G4) AGGGAGGGCGCTGGGAGGAGGG; settings: 153 mM Na+, 2.7 mM K+, 2.5 mM Mg2+, pH 7.4, 25 °C, dye 3 μM, apparent
[2] = test system: 20Src (DNA, G4) GGGCGGCGGGCTGGGCGGGG; settings: 2.5 mM Mg2+, 3 μM dye, apparent
[3] = test system: 26Tel (DNA, G4) TTAGGGTTAGGGTTAGGGTTAGGGTT; settings: 153 mM Na+, 2.7 mM K+, 2.5 mM Mg2+, pH 7.4, 25 °C, dye 3 μM, apparent
[4] = test system: 26Tel (DNA, G4) TTAGGGTTAGGGTTAGGGTTAGGGTT; settings: 2.5 mM Mg2+, 3 μM dye, apparent
[5] = test system: 20Src (DNA, G4) GGGCGGCGGGCTGGGCGGGG; settings: 2.5 mM Mg2+, pH 7.4, 25 °C, dye 3 μM, oligonucleotide to 15 μM, apparent, n.d., assumed
[6] = test system: 18Ras (RNA, G4) GGGAGGGGCGGGUCUGGG; settings: 2.5 mM Mg2+, pH 7.4, 25 °C, dye 3 μM, apparent
[7] = test system: 27Myc (DNA, G4) TGGGGAGGGTGGGGAGGGTGGGGAAGG; settings: 153 mM Na+, 2.7 mM K+, 2.5 mM Mg2+, pH 7.4, 25 °C, dye 3 μM, apparent
[8] = test system: 22Kit (DNA, G4) AGGGAGGGCGCTGGGAGGAGGG; settings: 140 mM K+, 10 mM Na+, 2.5 mM Mg2+; PBS140KM (phosphate) pH 7.4, 25 °C; 3 μM dye; apparent
[9] = test system: 22AG (DNA, G4) AGGGTTAGGGTTAGGGTTAGGG; settings: 2.5 mM Mg2+, pH 7.4, 25 °C, dye 3 μM, apparent
[10] = test system: 18Ras (RNA, G4) GGGAGGGGCGGGUCUGGG; settings: 140 mM K+, 10 mM Na+, 2.5 mM Mg2+; PBS140KM (phosphate) pH 7.4, 25 °C; 3 μM dye; apparent
[11] = test system: 27Myc (DNA, G4) TGGGGAGGGTGGGGAGGGTGGGGAAGG; settings: 140 mM K+, 10 mM Na+, 2.5 mM Mg2+; PBS140KM (phosphate) pH 7.4, 25 °C; 3 μM dye; apparent
[12] = test system: dsDNA (DNA, duplex) GGGTTACTACGAACTGG/CCAGTTCGTAGTAACCC; settings: 153 mM Na+, 2.7 mM K+, 2.5 mM Mg2+, pH 7.4, 25 °C, dye 3 μM, apparent
[13] = test system: 22AG (DNA, G4) AGGGTTAGGGTTAGGGTTAGGG; settings: 2.5 mM Mg2+, 3 μM dye, apparent
[14] = test system: dsDNA (DNA, duplex) GGGTTACTACGAACTGG/CCAGTTCGTAGTAACCC; settings: 140 mM K+, 10 mM Na+, 2.5 mM Mg2+; PBS140KM (phosphate) pH 7.4, 25 °C; 3 μM dye; apparent
[15] = PBS153NM, oligonucleotide to 15 μM, n.d., assumed
[16] = 140 mM K+, 10 mM Na+, PBS140KM (phosphate) pH 7.4, 25 °C
[17] = 153 mM Na+, 2.7 mM K+, PBS153NM
[18] = 153 mM Na+, 2.7 mM K+, PBS153NM (phosphate)
[19] = 140 mM K+, 10 mM Na+, PBS140KM, oligonucleotide to 15 μM, n.d., assumed
[20] = 153 mM Na+, 2.7 mM K+, PBS153NM, oligonucleotide to 15 μM, n.d., assumed
[21] = 153 mM Na+, 2.7 mM K+, PBS153NM (phosphate) pH 7.4, 25 °C

SMILES | Kd [1, 15] | Kd [2, 16] | Kd [3, 15] | Kd [4, 16] | Kd [5, 17] | Kd [6, 18] | Kd ([7]; PBS153NM (phosphate)) | Kd [8] | Kd [9, 19] | Kd [9, 18] | Kd [10] | Kd [11] | Kd [12, 15] | Kd [13, 16] | Kd ([1]; PBS153NM (phosphate)) | Kd ([3]; PBS153NM (phosphate)) | Kd ([5]; 140 mM K+, 10 mM Na+, PBS140KM) | Kd [9, 20] | further results
Cc1ccc2c(c1)sc(-c1ccc(N(C)C)cc1)[n+]2C |  |  |  | 4.0 ± 0.4 µM | > 40 µM | 15.3 ± 1.6 µM | 13.5 ± 5.1 µM | 9.9 ± 1.2 µM |  |  | 19.0 ± 2.9 µM | 6.9 ± 0.8 µM | > 40 µM | 5.0 ± 0.5 µM | 4.8 ± 0.8 µM | 29.5 ± 5.6 µM | > 40 µM |  | 
Cc1ccc2c(c1)sc(-c1ccc(N(C)C)cc1)[n+]2CCO |  |  | > 40 µM | 11.1 ± 1.5 µM | > 40 µM | 28.1 ± 4.0 µM | 14.1 ± 1.5 µM | 34.9 ± 6.6 µM |  |  | 25.0 ± 3.1 µM | 19.9 ± 0.9 µM | > 40 µM | 20.1 ± 1.5 µM | 12.3 ± 1.8 µM |  | > 40 µM | > 40 µM | 
Cc1ccc2c(c1)sc(-c1ccc(N(C)C)cc1)[n+]2CCN | > 40 µM |  | > 40 µM | 9.7 ± 5.5 µM | > 40 µM |  |  | 8.9 ± 3.5 µM | > 40 µM | 23.6 ± 9.1 µM |  |  | > 40 µM |  |  |  | > 40 µM |  | Kd [6, 19]: > 40 µM; Kd [6, 20]: > 40 µM; Kd [7, 15]: > 40 µM

Second part, led by results:

Kd [1, 15] | Kd [2, 16] | Kd [3, 15] | Kd [4, 16] | Kd [5, 17] | Kd [6, 18] | Kd ([7]; PBS153NM (phosphate)) | Kd [8] | Kd [9, 19] | Kd [9, 18] | Kd [10] | Kd [11] | Kd [12, 15] | Kd [13, 16] | Kd ([1]; PBS153NM (phosphate)) | Kd ([3]; PBS153NM (phosphate)) | Kd ([5]; 140 mM K+, 10 mM Na+, PBS140KM) | Kd [9, 20] | SMILES | further results
> 40 µM | 20.2 ± 2.3 µM | > 40 µM | 23.9 ± 3.1 µM | > 40 µM | 16.3 ± 1.8 µM | 29.1 ± 2.5 µM | 36.6 ± 4.4 µM | > 40 µM | 20.3 ± 9.9 µM | 15.3 ± 1.9 µM | 13.4 ± 0.8 µM | > 40 µM |  |  |  |  |  | Cc1ccc2c(c1)sc(-c1ccc(N(C)C)cc1)[n+]2CCNC(=O)COCC(=O)NCCOCCOCCOCCOCCOCCOCCOCCOCCOCCOCCOCCN | 
> 40 µM | 38.6 ± 5.9 µM |  | 5.3 ± 0.4 µM | > 40 µM | 15.5 ± 1.7 µM | 10.8 ± 1.3 µM | 20.5 ± 1.4 µM |  |  | 11.8 ± 0.6 µM | 8.7 ± 0.7 µM | > 40 µM | 11.8 ± 1.4 µM |  | 34.3 ± 4.0 µM |  | > 40 µM | Cc1ccc2c(c1)sc(-c1ccc(N(C)C)cc1)[n+]2CCNC(=O)COCCOCCN | 
 | 18.8 ± 2.4 µM |  | 2.4 ± 0.4 µM |  | 14.7 ± 3.2 µM | 5.3 ± 0.8 µM | 6.8 ± 0.6 µM |  |  | 12.8 ± 1.9 µM | 6.8 ± 0.9 µM |  | 5.4 ± 1.0 µM | 7.4 ± 3.9 µM |  |  |  | Cc1ccc2c(c1)sc(-c1ccc(N(C)C)cc1)[n+]2CCNC(=O)NCCCNCCCCNCCCN | Kd [13, 21]: 8.2 ± 0.8 µM; Kd [14]: 16.0 ± 1.0 µM; Kd [2, 21]: 4.1 ± 0.5 µM; Kd [4, 21]: 4.6 ± 0.3 µM; Kd ([12]; PBS153NM (phosphate)): 9.4 ± 1.0 µM
